Consider nine compounds from patent publication US20260098061A1, “EPHA2-BINDING PENDING PEPTIDE AND COMPOSITION COMPRISING SAME” (PeptiDream Inc., priority 2022, published 2026).

Numbered stars: 1 amine (or outer) side, 2 acyl side, 3 side chain; on linkers, the order of the positions; unused ones are H or OH. Bridge positions count the residues as written; N and C are the ends. Square brackets hold non-standard residues; d marks the D form. Side chains are listed from the residue outwards. Peptide text beside a SMILES is read from it. * marks the point of attachment. NH(1-deoxy-D-glucityl) = OC[C@@H](O)[C@@H](O)[C@H](O)[C@@H](O)CN*; Trp(1-Me,7-Cl) = Cn1cc(C[C@H](N)C(=O)O)c2cccc(Cl)c21; dPhe(3-CONH2) = NC(=O)c1cccc(C[C@@H](N)C(=O)O)c1; Piperazinyl(4-CH2COOH) = O=C(O)CN1CCN(*)CC1; Trp(1-Me) = Cn1cc(C[C@H](N)C(=O)O)c2ccccc21; NMe3Pal = CN[C@@H](Cc1cccnc1)C(=O)O; NMeF = CN[C@@H](Cc1ccccc1)C(=O)O; hArg = N=C(N)NCCCC[C@H](N)C(=O)O; hCit = NC(=O)NCCCC[C@H](N)C(=O)O; Gly(cBu) = N[C@H](C(=O)O)C1CCC1; NMeE = CN[C@@H](CCC(=O)O)C(=O)O; Aad = N[C@@H](CCCC(=O)O)C(=O)O; Chg = N[C@H](C(=O)O)C1CCCCC1; CO = O=C([*:1])[*:2]

For this assay, the target named is T1, Recombinant Human EphA2 Fc Protein (Homo sapiens, UniProt P29317).
T1 construct: purchased Elabscience
Nature of the assay: SPR interaction analysis (Biacore T200), kinetics of peptides against EphA2. The assay is classed as binding. The following applies: Recombinant Human EphA2 Fc Protein captured by Human Antibody Capture kit; single-cycle kinetics; 25° C.; HBS-P+ buffer with 1% DMSO. The method, then: Example 14 Interaction Analysis by SPR was Performed Using Biacore (Cytiva)
SPR assay was performed using Biacore T200 (Cytiva).
The HBS-P+ buffer (10 mM HEPES (pH7.4), 150 mM NaCl, 0.05% (v/V) Surfactant P20) containing 1% DMSO was used as running buffer. Recombinant Human EphA2 Fc Protein (Fc tag, Elabscience) was captured by Human Antibody Capture kit (Cytiva). Peptide samples in DMSO were diluted with running buffer, and prepared five serial dilutions. Using these serial dilutions, kinetics of peptides against EphA2 was measured at a flow rate of 30 mL/min at 25° C. The method adopted for sample measurement was a single-cycle kinetics method. The analysis was conducted using the evaluation software 3.0 provided with Biacore T200. Kinetics fitting was done on the difference data obtained by subtracting the baseline data from sample measurement data. KD values were calculated based on the association rate constant (ka) and dissociation rate constant (kd).
Background: Surface plasmon resonance follows binding to a sensor surface in real time, without labels.
Turning to `C[C@@H](O)[C@@H]1NC(=O)[C@H](Cc2cn(C)c3ccccc23)NC(=O)[C@H](CCC(=O)NC[C@H](O)[C@@H](O)[C@H](O)[C@H](O)CO)NC(=O)[C@H](Cc2cn(C)c3c(Cl)cccc23)NC(=O)[C@H](Cc2ccccc2)N(C)C(=O)[C@H](CCCC(N)=O)NC(=O)[C@H](C2CCC2)NC(=O)[C@H](CC(N)=O)NC(=O)[C@H](Cc2ccccc2)N(C)C(=O)[C@@H](Cc2cccc(C(N)=O)c2)NC(=O)CSC[C@@H](C(N)=O)NC(=O)[C@H](CCCC(N)=O)NC1=O` [PDC_EphA2-00019431, df3CON-MeF-N-Cbg-Hgn-MeF-W1Me7Cl-Qglucamine-W1Me-T-Hgn-C-NH2] ({CH2CO}-[dPhe(3-CONH2)][NMeF]N[Gly(cBu)][Aad](NH2)[NMeF][Trp(1-Me,7-Cl)]E(NH(1-deoxy-D-glucityl))[Trp(1-Me)]T[Aad](NH2)C-NH2; thioether N-12), the Kd – broadly, the concentration at which binding is half-saturated – was below 1 nM.

Consider `CC(C)[C@@H]1NC(=O)[C@H](Cc2cn(C)c3ccccc23)NC(=O)[C@H](CC(N)=O)NC(=O)[C@H](CCCC(N)=O)NC(=O)[C@H](C2CCC2)NC(=O)[C@H](CC(N)=O)NC(=O)[C@H](Cc2cccnc2)N(C)C(=O)[C@@H](C)NC(=O)CSC[C@@H](C(N)=O)NC(=O)[C@H](CCCC(N)=O)NC(=O)[C@H]([C@@H](C)O)NC(=O)[C@H](Cc2cn(C)c3ccccc23)NC1=O` [PDC_EphA2-00010010, da-Me3Py-N-Cbg-Hgn-N-W1Me-V-W1Me-T-Hgn-C-NH2] ({CH2CO}-[dA][NMe3Pal]N[Gly(cBu)][Aad](NH2)N[Trp(1-Me)]V[Trp(1-Me)]T[Aad](NH2)C-NH2; thioether N-12), for which the Kd was below 1 nM. On to `CN1C(=O)[C@H](CCC(=O)NC[C@H](O)[C@@H](O)[C@H](O)[C@H](O)CO)NC(=O)[C@H](C2CCC2)NC(=O)[C@H](CC(N)=O)NC(=O)[C@H](Cc2cccnc2)N(C)C(=O)[C@@H](Cc2cccc(C(N)=O)c2)NC(=O)CSC[C@@H](C(N)=O)NC(=O)[C@H](Cc2cn(C)c3ccccc23)NC(=O)[C@H](CCCCNC(=O)N2CCN(CC(=O)O)CC2)NC(=O)[C@H](Cc2cn(C)c3c(Cl)cccc23)NC(=O)[C@@H]1Cc1cccnc1` [PDC_EphA2-00026603, df3CON-Me3Py-N-Cbg-Qglucamine-Me3Py-W1Me7Cl-KCOpipzaa-W1Me-C-NH2] ({CH2CO}-[dPhe(3-CONH2)][NMe3Pal]N[Gly(cBu)]E(NH(1-deoxy-D-glucityl))[NMe3Pal][Trp(1-Me,7-Cl)]K([CO-Piperazinyl(4-CH2COOH)])[Trp(1-Me)]C-NH2; thioether N-10), for which the dissociation constant Kd was below 1 nM.

In the case of `CNC(=O)C[C@@H]1NC(=O)[C@H](CC(C)C)NC(=O)[C@H](CC(N)=O)NC(=O)[C@H](Cc2cccnc2)N(C)C(=O)[C@@H](C)NC(=O)CSC[C@@H](C(N)=O)NC(=O)[C@H](CCCC(N)=O)NC(=O)[C@H]([C@@H](C)O)NC(=O)[C@H](Cc2cn(C)c3ccccc23)NC(=O)[C@H](CCCCNC(=O)N2CCN(CC(=O)O)CC2)NC(=O)[C@H](Cc2cn(C)c3ccccc23)NC(=O)[C@H](CCC(=O)O)N(C)C1=O` [PDC_EphA2-00018531, da-Me3Py-N-L-Nmm-MeE-W1Me-KCOpipzaa-W1Me-T-Hgn-C-NH2] ({CH2CO}-[dA][NMe3Pal]NLD(NHMe)[NMeE][Trp(1-Me)]K([CO-Piperazinyl(4-CH2COOH)])[Trp(1-Me)]T[Aad](NH2)C-NH2; thioether N-12), the dissociation constant (Kd) is below 1 nM. `C[C@@H](O)[C@@H]1NC(=O)[C@H](Cc2cn(C)c3ccccc23)NC(=O)[C@H](CCCCNC(N)=O)NC(=O)[C@H](Cc2cn(C)c3c(Cl)cccc23)NC(=O)[C@H](CCC(=O)O)N(C)C(=O)[C@H](CCCC(N)=O)NC(=O)[C@H](C2CCC2)NC(=O)[C@H](CC(N)=O)NC(=O)[C@H](Cc2ccccc2)N(C)C(=O)[C@@H](Cc2cccc(C(N)=O)c2)NC(=O)CSC[C@@H](C(N)=O)NC(=O)[C@H](CCCCNC(=N)N)NC1=O` [PDC_EphA2-00019426, df3CON-MeF-N-Cbg-Hgn-MeN-W1Me7Cl-Hcit-W1Me-T-Hgn-C-NH2] ({CH2CO}-[dPhe(3-CONH2)][NMeF]N[Gly(cBu)][Aad](NH2)[NMeE][Trp(1-Me,7-Cl)][hCit][Trp(1-Me)]T[hArg]C-NH2; thioether N-12): the equilibrium dissociation constant (Kd) is below 1 nM. Regarding `C[C@H]1NC(=O)CSC[C@@H](C(N)=O)NC(=O)[C@H](CCCC(N)=O)NC(=O)[C@H]([C@@H](C)O)NC(=O)[C@H](Cc2cn(C)c3ccccc23)NC(=O)[C@H](CCCCNC(=O)N2CCN(CC(=O)O)CC2)NC(=O)[C@H](Cc2cn(C)c3ccccc23)NC(=O)[C@H](Cc2ccccc2)N(C)C(=O)[C@H](CC(=O)N(C)C)NC(=O)[C@H](C2CCCCC2)NC(=O)[C@H](CC(N)=O)NC(=O)[C@H](Cc2cccnc2)N(C)C1=O` [PDC_EphA2-00018537, da-Me3Py-N-Chg-Ndm-MeF-W1Me-KCOpipzaa-W1Me-T-Hgn-C-NH2] ({CH2CO}-[dA][NMe3Pal]N[Chg]D(NMe2)[NMeF][Trp(1-Me)]K([CO-Piperazinyl(4-CH2COOH)])[Trp(1-Me)]T[Aad](NH2)C-NH2; thioether N-12), the Kd is below 1 nM. For the compound `C[C@@H](O)[C@@H]1NC(=O)[C@H](Cc2cn(C)c3ccccc23)NC(=O)[C@H](CCC(=O)NC[C@H](O)[C@@H](O)[C@H](O)[C@H](O)CO)NC(=O)[C@H](Cc2cn(C)c3c(Cl)cccc23)NC(=O)[C@H](Cc2ccccc2)N(C)C(=O)[C@H](CCCCNC(=O)N2CCN(CC(=O)O)CC2)NC(=O)[C@H](C2CCC2)NC(=O)[C@H](CC(N)=O)NC(=O)[C@H](Cc2cccnc2)N(C)C(=O)[C@@H](Cc2cccc(C(N)=O)c2)NC(=O)CSC[C@@H](C(N)=O)NC(=O)[C@H](CCCC(N)=O)NC1=O` [PDC_EphA2-00019442, df3CON-Me3Py-N-Cbg-KCOpipzaa-MeF-W1Me7Cl-Qglucamine-W1Me-T-Hgn-C-NH2] ({CH2CO}-[dPhe(3-CONH2)][NMe3Pal]N[Gly(cBu)]K([CO-Piperazinyl(4-CH2COOH)])[NMeF][Trp(1-Me,7-Cl)]E(NH(1-deoxy-D-glucityl))[Trp(1-Me)]T[Aad](NH2)C-NH2; thioether N-12), the Kd was below 1 nM. In the case of `C[C@H]1NC(=O)CSC[C@@H](C(N)=O)NC(=O)[C@H](CC(=O)N(C)C)NC(=O)[C@H]([C@@H](C)O)NC(=O)[C@H](Cc2cn(C)c3ccccc23)NC(=O)[C@H](CCCCNC(=O)N2CCN(CC(=O)O)CC2)NC(=O)[C@H](Cc2cn(C)c3ccccc23)NC(=O)[C@H](Cc2ccccc2)N(C)C(=O)[C@H](CCCC(N)=O)NC(=O)[C@H](C2CCCCC2)NC(=O)[C@H](CC(N)=O)NC(=O)[C@H](Cc2cccnc2)N(C)C1=O` [PDC_EphA2-00018540, da-Me3Py-N-Chg-Hgn-MeF-W1Me-KCOpipzaa-W1Me-T-Ndm-C-NH2] ({CH2CO}-[dA][NMe3Pal]N[Chg][Aad](NH2)[NMeF][Trp(1-Me)]K([CO-Piperazinyl(4-CH2COOH)])[Trp(1-Me)]TD(NMe2)C-NH2; thioether N-12), the dissociation constant Kd was below 1 nM. As to `CC(C)C[C@@H]1NC(=O)[C@H](CC(N)=O)NC(=O)[C@H](Cc2cccnc2)N(C)C(=O)[C@@H](Cc2cccc(C(N)=O)c2)NC(=O)CSC[C@@H](C(N)=O)NC(=O)[C@H](Cc2cn(C)c3ccccc23)NC(=O)[C@H](CCCCNC(N)=O)NC(=O)[C@H](Cc2cn(C)c3c(Cl)cccc23)NC(=O)[C@H](Cc2cccnc2)N(C)C(=O)[C@H](CO)NC1=O` [PDC_EphA2-00026601, df3CON-Me3Py-N-L-S-Me3Py-W1Me7Cl-Hcit-W1Me-C-NH2] ({CH2CO}-[dPhe(3-CONH2)][NMe3Pal]NLS[NMe3Pal][Trp(1-Me,7-Cl)][hCit][Trp(1-Me)]C-NH2; thioether N-10), the Kd lay in the range of 1 to 10 nM.
